Assay results reported in ChEMBL document CHEMBL4422690, “Synthesis of Rosmarinic Acid Amides as Antioxidative and Hypoglycemic Agents” (J Nat Prod, 2019).

Assays:
[1] = Inhibition of yeast alpha-glucosidase using pNP-alpha-G as substrate measured after 30 mins; design: species or system Saccharomyces cerevisiae
[2] = Antioxidant activity assessed as DPPH radical scavenging activity incubated for 1.5 hrs under dark condition by spectrometric method; type: functional
[3] = Antioxidant activity assessed as trolox equivalents of AAPH radical scavenging activity at 50 uM preincubated for 10 mins followed by AAPH addition and measured every min for 30 mins by ORAC-FL assay; type: functional
[4] = Mixed-type inhibition of yeast alpha-glucosidase assessed as […] dissociation constant using varying levels of pNP-alpha-G as substrate incubated for 30 mins and measured at 1 min interval for 30 mins by Lineweaver-burk plot analysis; design: species or system Saccharomyces cerevisiae
[5] = Mixed-type inhibition of yeast alpha-glucosidase assessed as enzyme-substrate-inhibitor dissociation constant using varying levels of pNP-alpha-G as substrate incubated for 30 mins and measured at 1 min interval for 30 mins by Lineweaver-burk plot analysis; design: species or system Saccharomyces cerevisiae

O=C(/C=C/c1ccc(O)c(O)c1)O[C@H](Cc1ccc(O)c(O)c1)C(=O)NCCN1CCCCC1
IC50 [1]: 53.3 µM | IC50 [2]: 10.1 µM | Activity [3]: 2.84 µMequiv/µM

CCN(CC)CCCNC(=O)[C@@H](Cc1ccc(O)c(O)c1)OC(=O)/C=C/c1ccc(O)c(O)c1
IC50 [1]: 42.3 µM | IC50 [2]: 8.9 µM | Activity [3]: 2.81 µMequiv/µM

C[C@H]1O[C@H](O[C@H]2[C@H](O)[C@@H](O)[C@@H](O[C@H]3[C@H](O)[C@@H](O)C(O)O[C@@H]3CO)O[C@@H]2CO)[C@H](O)[C@@H](O)[C@@H]1N[C@H]1C=C(CO)[C@@H](O)[C@H](O)[C@H]1O (stereo partly drawn) [ACARBOSE]
IC50 [1]: 269 to 285 µM

O=C(/C=C/c1ccc(O)c(O)c1)O[C@H](Cc1ccc(O)c(O)c1)C(=O)NCc1ccccc1
IC50 [1]: 111 µM | IC50 [2]: 8.2 µM | Activity [3]: 2.79 µMequiv/µM

O=C(/C=C/c1ccc(O)c(O)c1)O[C@H](Cc1ccc(O)c(O)c1)C(=O)NCCc1ccc(O)cc1
IC50 [1]: 74.9 µM | IC50 [2]: 7.1 µM | Activity [3]: 3.28 µMequiv/µM

CCCCNC(=O)[C@@H](Cc1ccc(O)c(O)c1)OC(=O)/C=C/c1ccc(O)c(O)c1
IC50 [1]: 106 µM | IC50 [2]: 8.3 µM | Activity [3]: 2.72 µMequiv/µM

O=C(/C=C/c1ccc(O)c(O)c1)O[C@H](Cc1ccc(O)c(O)c1)C(=O)NCCc1ccccc1
IC50 [1]: 87.7 µM | IC50 [2]: 10.4 µM | Activity [3]: 3.07 µMequiv/µM

O=c1c(O)c(-c2ccc(O)c(O)c2)oc2cc(O)cc(O)c12 [QUERCETIN]
IC50 [2]: 15.6 to 16.8 µM | Activity [3]: 2.11 to 2.19 µMequiv/µM

CN1CCN(CCNC(=O)[C@@H](Cc2ccc(O)c(O)c2)OC(=O)/C=C/c2ccc(O)c(O)c2)CC1
IC50 [1]: 35.2 µM | IC50 [2]: 9.7 µM | Activity [3]: 2.77 µMequiv/µM | Ki [4]: 22.8 µM | Ki [5]: 34.8 µM

O=C(/C=C/c1ccc(O)c(O)c1)O[C@H](Cc1ccc(O)c(O)c1)C(=O)O [ROSMARINIC ACID]
IC50 [1]: 134 µM | IC50 [2]: 11 µM | Activity [3]: 2.1 µMequiv/µM

CC(C)CNC(=O)[C@@H](Cc1ccc(O)c(O)c1)OC(=O)/C=C/c1ccc(O)c(O)c1
IC50 [1]: 108 µM | IC50 [2]: 11.9 µM | Activity [3]: 2.15 µMequiv/µM

Cc1ccc(CNC(=O)[C@@H](Cc2ccc(O)c(O)c2)OC(=O)/C=C/c2ccc(O)c(O)c2)cc1
IC50 [1]: 109 µM | IC50 [2]: 10.1 µM | Activity [3]: 2.62 µMequiv/µM

CN(C)CCCNC(=O)[C@@H](Cc1ccc(O)c(O)c1)OC(=O)/C=C/c1ccc(O)c(O)c1
IC50 [1]: 65.5 µM | IC50 [2]: 9.3 µM | Activity [3]: 2.64 µMequiv/µM
